The target in assay [1] is T1, Oxysterols receptor LXR-beta (Homo sapiens, UniProt P55055). Kind of assay: Binding affinity to recombinant human LXRbeta-LBD expressed in Escherichia coli BL21 (DE3) assessed as inhibitory constant incubated for 30 mins by fluorescence polarization binding assay. (In general: Fluorescence polarisation rises when a labelled molecule tumbles more slowly, as on binding a larger partner.)

For assay [2], the target named is T1, Oxysterols receptor LXR-beta. Briefly: Agonist activity at recombinant human LXRbeta-LBD expressed in Escherichia coli BL21 (DE3) assessed as peptide D22 recruitment fluorescence polarization binding assay.
The target is the same in assay [3]. Kind of assay: Binding affinity to recombinant human LXRbeta-LBD expressed in Escherichia coli BL21 (DE3) assessed as dissociation constant incubated for 30 mins by fluorescence polarization binding assay.

SMILES strings stand for the structures.

By Ki is commonly meant the dissociation constant of the complex between target and ligand, obtained from inhibition or displacement. A word on the EC50: it is the concentration that produces a half-maximal response. As usually defined, the Kd is a measure of binding affinity in units of concentration.

T1 sequence (P55055 whole entry, the tested form may be a part): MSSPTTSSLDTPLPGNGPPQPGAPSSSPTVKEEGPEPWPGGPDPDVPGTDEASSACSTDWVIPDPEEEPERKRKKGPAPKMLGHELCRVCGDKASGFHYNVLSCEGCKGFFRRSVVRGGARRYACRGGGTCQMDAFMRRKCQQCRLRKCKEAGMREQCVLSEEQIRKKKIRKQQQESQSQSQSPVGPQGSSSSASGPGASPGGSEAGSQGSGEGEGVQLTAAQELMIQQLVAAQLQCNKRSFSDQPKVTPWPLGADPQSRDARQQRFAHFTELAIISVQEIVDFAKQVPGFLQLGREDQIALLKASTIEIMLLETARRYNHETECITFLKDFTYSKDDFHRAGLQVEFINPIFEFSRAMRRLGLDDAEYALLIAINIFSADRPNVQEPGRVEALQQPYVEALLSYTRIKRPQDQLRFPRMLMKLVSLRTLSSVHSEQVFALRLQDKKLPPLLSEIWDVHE

As for `Oc1ccc(Sc2ccc(O)cc2)cc1`, in assay [1], the inhibitory constant (Ki) was determined as 68 µM. Consider `CCOC(=O)c1cn2nc[nH]c(=O)c2c1C(C)C`, for which the EC50 in assay [2] worked out at 19 µM. Further, the Ki in assay [1] is 140 µM.

For the compound `O=C(O)Cc1cccc(OCCCN(Cc2cccc(C(F)(F)F)c2Cl)CC(c2ccccc2)c2ccccc2)c1`, in assay [2], the EC50 is 0.289 µM. Moreover, the inhibitory constant (Ki) in assay [1] came out at 0.0022 µM.

Consider `CC(C)(C)OC(=O)N1Cc2cn[nH]c2C1`, for which the inhibition constant Ki in assay [1] is 225 µM. `Brc1nn(C2CCCCO2)c2ncccc12` (stereo unspecified): the Ki in assay [1] worked out at 209 µM.

Consider `CC(=O)c1c(C)ccc2ccccc12`, for which the Ki in assay [1] came out at 153 µM. As for `Oc1ccc(Cl)cc1` [PARACHLOROPHENOL], in assay [2], the concentration giving a half-maximal response (EC50) was found to be 514 µM. The Ki in assay [1] is 169 µM. In the case of `Oc1cccc(Cl)c1`, in assay [2], the EC50 is 519 µM. Besides, in assay [1], the Ki worked out at 184 µM.

For `N#CC[C@H](C1CCCC1)n1cc(-c2ncnc3[nH]ccc23)cn1` [RUXOLITINIB], in assay [1], the Ki stood at 45 µM. Take `CC(C)[C@@H]1CN(c2ccc(CO)c(S(C)(=O)=O)c2)CCN1c1ncc(COC(=O)CCCCCNC(=S)Nc2ccc3c(c2)C(=O)OC32c3ccc(O)cc3Oc3cc(O)ccc32)c(C(F)(F)F)n1`: the Kd in assay [3] was 0.0489 µM. For `CCOC(=O)c1ccc(CN(Cc2ccc(-c3cccc(S(C)(=O)=O)c3)cc2)S(=O)(=O)c2c(C)cc(C)cc2C)o1`, the inhibitory constant (Ki) in assay [1] came out at 0.352 µM. `COc1ccc(OC)c(Cl)c1`: the half-maximal effective concentration (EC50) in assay [2] is 1030 µM. Besides, the Ki in assay [1] amounted to 476 µM. Turning to `COC(=O)c1ccc2cc[nH]c2c1`, the Ki in assay [1] amounted to 302 µM.

On to `CCCCOC(=O)c1ccc(O)cc1` [BUTYLPARABEN], for which, in assay [1], the Ki is 66 µM. With `O=C1Nc2ccc(Br)cc2CO1`, the Ki in assay [1] was over 500 µM.

In the case of `Fc1ccc(-c2c3cccc(C(F)(F)F)c3nn2Cc2ccc(F)cc2Cl)cc1` [LXR-623], the Ki in assay [1] came to 0.0142 µM.
